Data from publication PMC5253734, “A chemical genetic screen uncovers a small molecule enhancer of the N-acylethanolamine degrading enzyme, fatty acid amide hydrolase, in Arabidopsis” (Scientific Reports, 2017).

Experiments:
[1] = molecular target: T1, AtFAAH (Arabidopsis fatty acid amide hydrolase) (Arabidopsis thaliana, UniProt Q7XJJ7); test: radiometric TLC amidohydrolase assay, initial velocities, Michaelis-Menten; type: biochemical; settings: labelled compound ([1-14C]); pH 9 Bis-Tris propane, 0.2 mM DDM, 30 °C; range covers without and with 100 μM MDPD; read-out: apparent Km
T1 construct: gene FAAH
T1 sequence (Q7XJJ7 1-607): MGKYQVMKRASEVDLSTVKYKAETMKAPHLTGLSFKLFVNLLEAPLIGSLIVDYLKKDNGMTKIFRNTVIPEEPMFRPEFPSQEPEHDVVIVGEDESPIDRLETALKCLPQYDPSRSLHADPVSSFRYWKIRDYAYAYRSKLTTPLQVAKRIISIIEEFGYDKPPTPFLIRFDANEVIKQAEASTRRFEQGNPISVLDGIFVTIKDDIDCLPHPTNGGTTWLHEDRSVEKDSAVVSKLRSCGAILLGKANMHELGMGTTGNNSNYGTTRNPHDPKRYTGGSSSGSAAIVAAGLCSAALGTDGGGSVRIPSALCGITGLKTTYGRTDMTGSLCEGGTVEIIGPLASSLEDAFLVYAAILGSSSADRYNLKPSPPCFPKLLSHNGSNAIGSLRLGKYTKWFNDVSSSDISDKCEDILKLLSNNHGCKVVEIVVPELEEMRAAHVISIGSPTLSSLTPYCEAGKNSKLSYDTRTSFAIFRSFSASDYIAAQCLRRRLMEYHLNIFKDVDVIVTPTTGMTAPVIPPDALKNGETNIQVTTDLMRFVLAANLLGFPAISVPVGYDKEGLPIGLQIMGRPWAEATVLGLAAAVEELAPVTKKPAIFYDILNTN

[2] = molecular target: T1, AtFAAH (Arabidopsis fatty acid amide hydrolase); test: radiometric TLC amidohydrolase assay; type: biochemical; settings: activator (raises apparent Vmax, not Km); 100 μM [14C]-NAE 12:0; pH 9, 0.2 mM DDM, 30 °C

Km [1] [µM] | fold increase in activity at 100 μM [2] | Structure (SMILES)
27 to 28 |  | CCCCCCCCCCCC(=O)NCCO [NAE 12:0, N-lauroylethanolamine]
 | ~ 4 fold | COc1ccccc1-n1cc2c(c1-c1ccccc1)c(=O)n(C)c(=O)n2C [MDPD, 6-(2-methoxyphenyl)-1,3-dimethyl-5-phenyl-1H-pyrrolo[3,4-d]pyrimidine-2,4(3 H,6 H)-dione]
